Laboratory results reported in patent publication US10597388B2, “Pyridazinone herbicides” (FMC CORPORATION, priority 2014, dated 2020).

What was measured:
Assay in all cases: Test D controlled growth environment herbicide test, pre- and postemergence
Format in all cases: in vivo
[1] = test system: chamomile (scentless chamomile, Matricaria inodora)
In short: (§1)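 Species sown in silt loam and sprayed preemergence, or grown in peat-based medium to 2–18 cm (1- to 4-leaf stage) and sprayed postemergence, with compounds in non-phytotoxic solvent plus surfactant. Visual injury scored versus controls after 14–21 d in a controlled environment, 0 (no effect) to 100 (complete control).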

[2] = test system: buckwheat, wild (wild buckwheat, Polygonum convolvulus)
In short: as §1

[3] = test system: radish, wild (wild radish, Raphanus raphanistrum)
In short: as §1

[4] = test system: mustard, wild (wild mustard, Sinapis arvensis)
In short: as §1

[5] = test system: oat, wild (wild oat, Avena fatua)
In short: as §1

[6] = test system: field poppy (Papaver rhoeas)
In short: as §1

[7] = test system: barley, spring (spring barley, Hordeum vulgare)
In short: as §1

[8] = test system: galium (catchweed bedstraw, Galium aparine)
In short: as §1

[9] = test system: bluegrass (annual bluegrass, Poa annua)
In short: as §1

[10] = test system: oilseed rape (Brassica napus)
In short: as §1

[11] = test system: barley, winter (winter barley, Hordeum vulgare)
In short: as §1

[12] = test system: pigweed (Amaranthus retroflexus)
In short: as §1

[13] = test system: speedwell (bird's-eye speedwell, Veronica persica)
In short: as §1

[14] = Postemergence, 31 g ai/ha, scale 0 to 100 (0 no effect, 100 complete control)
[15] = Postemergence, 125 g ai/ha, visual rating on scale 0 (no effect) to 100 (complete control), 14 to 21 d
[16] = Postemergence, 250 g ai/ha, scale 0 to 100 (0 no effect, 100 complete control)
[17] = Preemergence, 125 g ai/ha, scale 0 to 100 (0 no effect, 100 complete control)
[18] = Preemergence, 250 g ai/ha, scale 0 to 100 (0 no effect, 100 complete control)
[19] = postemergence, 62 g ai/ha, scale 0 to 100, 0 no effect, 100 complete control
[20] = Preemergence, 62 g ai/ha, scale 0 to 100 (0 no effect, 100 complete control)

SMILES: CC(=O)Oc1c(C)nn(C)c(=O)c1-c1ccc(F)c2ccccc12 [Compound 90]
- Chamomile plant response rating [1, 14]: 70
- Plant response rating, Chamomile [1, 15]: 98
- Plant response rating, Chamomile [1, 16]: 100
- Plant response rating (scale of 0 to 100), Chamomile ([1]; Preemergence, 31 g ai/ha): 100
- Plant response rating (scale of 0 to 100), Chamomile ([1]; Preemergence, 62 g ai/ha): 100
- Plant response rating, Chamomile [1, 17]: 100
- Plant response rating, Chamomile [1, 18]: 100
- Plant response rating, Chamomile [1, 19]: 75
- Buckwheat, Wild plant response rating [2, 14]: 80
- Plant response rating, Buckwheat, Wild [2, 15]: 100
- Plant response rating, Buckwheat, Wild [2, 16]: 100
- Plant response rating (scale of 0 to 100), Buckwheat, Wild ([2]; Preemergence, 31 g ai/ha): 15
- Plant response rating, Buckwheat, Wild [2, 17]: 40
- Plant response rating, Buckwheat, Wild [2, 18]: 80
- Plant response rating, Buckwheat, Wild [2, 19]: 90
- Radish, Wild plant response rating [3, 14]: 65
- Plant response rating, Radish, Wild [3, 15]: 75
- Plant response rating, Radish, Wild [3, 16]: 95
- Plant response rating (scale of 0 to 100), Radish, Wild ([3]; Preemergence, 31 g ai/ha): 0
- Plant response rating (scale of 0 to 100), Radish, Wild ([3]; Preemergence, 62 g ai/ha): 65
- Plant response rating, Radish, Wild [3, 17]: 90
- Plant response rating, Radish, Wild [3, 18]: 95
- Plant response rating, Radish, Wild [3, 19]: 75
- Mustard, Wild plant response rating [4, 14]: 80
- Plant response rating, Mustard, Wild [4, 15]: 100
- Plant response rating, Mustard, Wild [4, 16]: 100
- Plant response rating (scale of 0 to 100), Mustard, Wild ([4]; Preemergence, 31 g ai/ha): 35
- Plant response rating (scale of 0 to 100), Mustard, Wild ([4]; Preemergence, 62 g ai/ha): 98
- Plant response rating, Mustard, Wild [4, 17]: 100
- Plant response rating, Mustard, Wild [4, 18]: 90
- Plant response rating, Mustard, Wild [4, 19]: 95
- Oat, Wild plant response rating [5, 14]: 75
- Plant response rating, Oat, Wild [5, 15]: 98
- Plant response rating, Oat, Wild [5, 16]: 100
- Plant response rating (scale of 0 to 100), Oat, Wild ([5]; Preemergence, 31 g ai/ha): 75
- Plant response rating (scale of 0 to 100), Oat, Wild ([5]; Preemergence, 62 g ai/ha): 80
- Plant response rating, Oat, Wild [5, 17]: 85
- Plant response rating, Oat, Wild [5, 18]: 98
- Plant response rating, Oat, Wild [5, 19]: 90
- Field Poppy plant response rating [6, 14]: 65
- Plant response rating, Field Poppy [6, 15]: 75
- Plant response rating, Field Poppy [6, 16]: 90
- Plant response rating (scale of 0 to 100), Field Poppy ([6]; Preemergence, 31 g ai/ha): 15
- Plant response rating (scale of 0 to 100), Field Poppy ([6]; Preemergence, 62 g ai/ha): 100
- Plant response rating, Field Poppy [6, 17]: 100
- Plant response rating, Field Poppy [6, 18]: 100
- Plant response rating, Field Poppy [6, 19]: 70
- Barley, Spring plant response rating [7, 14]: 10
- Plant response rating, Barley, Spring [7, 15]: 35
- Plant response rating, Barley, Spring [7, 16]: 40
- Plant response rating (scale of 0 to 100), Barley, Spring ([7]; Preemergence, 31 g ai/ha): 0
- Plant response rating, Barley, Spring [7, 20]: 0
- Plant response rating, Barley, Spring [7, 17]: 20
- Plant response rating, Barley, Spring [7, 18]: 35
- Plant response rating, Barley, Spring [7, 19]: 25
- Galium plant response rating [8, 14]: 98
- Plant response rating, Galium [8, 15]: 100
- Plant response rating, Galium [8, 16]: 100
- Plant response rating (scale of 0 to 100), Galium ([8]; Preemergence, 31 g ai/ha): 75
- Plant response rating (scale of 0 to 100), Galium ([8]; Preemergence, 62 g ai/ha): 75
- Plant response rating, Galium [8, 17]: 85
- Plant response rating, Galium [8, 18]: 95
- Plant response rating, Galium [8, 19]: 100
- Bluegrass plant response rating [9, 14]: 5
- Plant response rating, Bluegrass [9, 15]: 25
- Plant response rating, Bluegrass [9, 16]: 30
- Plant response rating (scale of 0 to 100), Bluegrass ([9]; Preemergence, 31 g ai/ha): 0
- Plant response rating, Bluegrass [9, 20]: 40
- Plant response rating, Bluegrass [9, 17]: 65
- Plant response rating, Bluegrass [9, 18]: 65
- Plant response rating, Bluegrass [9, 19]: 15
- Oilseed Rape plant response rating [10, 14]: 0
- Plant response rating, Oilseed Rape [10, 15]: 15
- Plant response rating, Oilseed Rape [10, 16]: 70
- Plant response rating (scale of 0 to 100), Oilseed Rape ([10]; Preemergence, 31 g ai/ha): 0
- Plant response rating (scale of 0 to 100), Oilseed Rape ([10]; Preemergence, 62 g ai/ha): 0
- Plant response rating, Oilseed Rape [10, 17]: 0
- Plant response rating, Oilseed Rape [10, 18]: 0
- Plant response rating, Oilseed Rape [10, 19]: 5
- Barley, Winter plant response rating [11, 14]: 0
- Plant response rating, Barley, Winter [11, 15]: 25
- Plant response rating, Barley, Winter [11, 16]: 35
- Plant response rating (scale of 0 to 100), Barley, Winter ([11]; Preemergence, 31 g ai/ha): 0
- Plant response rating, Barley, Winter [11, 20]: 0
- Plant response rating, Barley, Winter [11, 17]: 15
- Plant response rating, Barley, Winter [11, 18]: 30
- Plant response rating, Barley, Winter [11, 19]: 15
- Pigweed plant response rating [12, 14]: 80
- Plant response rating, Pigweed [12, 15]: 95
- Plant response rating, Pigweed [12, 16]: 100
- Plant response rating (scale of 0 to 100), Pigweed ([12]; Preemergence, 31 g ai/ha): 25
- Plant response rating (scale of 0 to 100), Pigweed ([12]; Preemergence, 62 g ai/ha): 35
- Plant response rating, Pigweed [12, 17]: 100
- Plant response rating, Pigweed [12, 18]: 100
- Plant response rating, Pigweed [12, 19]: 90
- Speedwell plant response rating [13, 14]: 100
- Plant response rating, Speedwell [13, 15]: 100
- Plant response rating, Speedwell [13, 16]: 100
- Plant response rating (scale of 0 to 100), Speedwell ([13]; Preemergence, 31 g ai/ha): 100
- Plant response rating (scale of 0 to 100), Speedwell ([13]; Preemergence, 62 g ai/ha): 100
- Plant response rating, Speedwell [13, 17]: 100
- Plant response rating, Speedwell [13, 18]: 100
- Plant response rating, Speedwell [13, 19]: 100
